Measured values: US20230391768A2, “IMIDAZOPYRIDINE DERIVATIVES AND AZA-IMIDAZOPYRIDINE DERIVATIVES AS JANUS KINASE 2 INHIBITORS AND USES THEREOF” (Dana-Farber Cancer Institute, Inc., priority 2018, published 2023)

Legend:
Experiment in all cases: KINOMEscan
Assay type in all cases: binding
Details in all cases: read-out: percent of control
PYK2 = PYK2 (Homo sapiens (Human), UniProt Q14289)
Experimental: (§1) In vitro profiling of Compound I-2 (1 μM) was performed using the DiscoveRx KINOMEscan® platform.

EGFR(E746-A750del) = EGFR(E746-A750del) (Homo sapiens (Human), UniProt P00533, DEL746-750)
Experimental: as §1

PIK3CA(C420R) = PIK3CA(C420R) (Homo sapiens (Human), UniProt P42336, C420R)
Experimental: as §1

KIT(D816V) = KIT(D816V) (Homo sapiens (Human), UniProt P10721, D816V)
Experimental: as §1

[1] = target: RSK4 (Kin.Dom.2-C-terminal) (Homo sapiens (Human), UniProt Q9UK32)
Experimental: as §1

CAMKK1 = CAMKK1 (Homo sapiens (Human), UniProt Q8N5S9)
Experimental: as §1

ALK(C1156Y) = ALK(C1156Y) (Homo sapiens (Human), UniProt Q9UM73, C1156Y)
Experimental: as §1

QSK = QSK (Homo sapiens (Human), UniProt Q9Y2K2)
Experimental: as §1

JNK2 = JNK2 (Homo sapiens (Human), UniProt P45984)
Experimental: as §1

DMPK = DMPK (Homo sapiens (Human), UniProt Q09013)
Experimental: as §1

EGFR(G719C) = EGFR(G719C) (Homo sapiens (Human), UniProt P00533, G719C)
Experimental: as §1

HIPK1 = HIPK1 (Homo sapiens (Human), UniProt Q86Z02)
Experimental: as §1

KIT(V559D,T670I) = KIT(V559D,T670I) (Homo sapiens (Human), UniProt P10721, T670I/V559D)
Experimental: as §1

CSNK1G1 = CSNK1G1 (Homo sapiens (Human), UniProt Q9HCP0)
Experimental: as §1

TSSK3 = TSSK3 (Homo sapiens (Human), UniProt Q96PN8)
Experimental: as §1

[2] = target: RSK3 (Kin.Dom.2-C-terminal) (Homo sapiens (Human), UniProt Q15349)
Experimental: as §1

ABL1-nonphosphorylated = ABL1-nonphosphorylated (Homo sapiens (Human), UniProt P00519)
Experimental: as §1

LRRK2 = LRRK2 (Homo sapiens (Human), UniProt Q5S007)
Experimental: as §1

FLT3 (R834Q) = FLT3 (R834Q) (Homo sapiens (Human), UniProt P36888, R834Q)
Experimental: as §1

GRK2 = GRK2 (Homo sapiens (Human), UniProt P25098)
Experimental: as §1

EPHA4 = EPHA4 (Homo sapiens (Human), UniProt P54764)
Experimental: as §1

EGFR(S752-I759del) = EGFR(S752-I759del) (Homo sapiens (Human), UniProt P00533, DEL752-759)
Experimental: as §1

MET(M1250T) = MET(M1250T) (Homo sapiens (Human), UniProt P08581, M1250T)
Experimental: as §1

EPHB 1 = EPHB 1 (Homo sapiens (Human), UniProt P54762)
Experimental: as §1

CLK1 = CLK1 (Homo sapiens (Human), UniProt P49759)
Experimental: as §1

ZAP70 = ZAP70 (Homo sapiens (Human), UniProt P43403)
Experimental: as §1

PLK3 = PLK3 (Homo sapiens (Human), UniProt Q9H4B4)
Experimental: as §1

RAF1 = RAF1 (Homo sapiens (Human), UniProt P04049)
Experimental: as §1

PKAC-alpha = PKAC-alpha (Homo sapiens (Human), UniProt P17612)
Experimental: as §1

MST1 = MST1 (Homo sapiens (Human), UniProt Q13043)
Experimental: as §1

DRAK1 = DRAK1 (Homo sapiens (Human), UniProt Q9UEE5)
Experimental: as §1

SRMS = SRMS (Homo sapiens (Human), UniProt Q9H3Y6)
Experimental: as §1

[3] = target: JAK1(JH2domainpseudokinase) (Homo sapiens (Human), UniProt P23458)
Experimental: as §1

CAMK2B = CAMK2B (Homo sapiens (Human), UniProt Q13554)
Experimental: as §1

[4] = target: RPS6KA5 (Kin.Dom.2-C-terminal) (Homo sapiens (Human), UniProt O75582)
Experimental: as §1

MEK2 = MEK2 (Homo sapiens (Human), UniProt P36507)
Experimental: as §1

MET(Y1235D) = MET(Y1235D) (Homo sapiens (Human), UniProt P08581, Y1235D)
Experimental: as §1

HIPK1, sequence (Q86Z02 whole entry): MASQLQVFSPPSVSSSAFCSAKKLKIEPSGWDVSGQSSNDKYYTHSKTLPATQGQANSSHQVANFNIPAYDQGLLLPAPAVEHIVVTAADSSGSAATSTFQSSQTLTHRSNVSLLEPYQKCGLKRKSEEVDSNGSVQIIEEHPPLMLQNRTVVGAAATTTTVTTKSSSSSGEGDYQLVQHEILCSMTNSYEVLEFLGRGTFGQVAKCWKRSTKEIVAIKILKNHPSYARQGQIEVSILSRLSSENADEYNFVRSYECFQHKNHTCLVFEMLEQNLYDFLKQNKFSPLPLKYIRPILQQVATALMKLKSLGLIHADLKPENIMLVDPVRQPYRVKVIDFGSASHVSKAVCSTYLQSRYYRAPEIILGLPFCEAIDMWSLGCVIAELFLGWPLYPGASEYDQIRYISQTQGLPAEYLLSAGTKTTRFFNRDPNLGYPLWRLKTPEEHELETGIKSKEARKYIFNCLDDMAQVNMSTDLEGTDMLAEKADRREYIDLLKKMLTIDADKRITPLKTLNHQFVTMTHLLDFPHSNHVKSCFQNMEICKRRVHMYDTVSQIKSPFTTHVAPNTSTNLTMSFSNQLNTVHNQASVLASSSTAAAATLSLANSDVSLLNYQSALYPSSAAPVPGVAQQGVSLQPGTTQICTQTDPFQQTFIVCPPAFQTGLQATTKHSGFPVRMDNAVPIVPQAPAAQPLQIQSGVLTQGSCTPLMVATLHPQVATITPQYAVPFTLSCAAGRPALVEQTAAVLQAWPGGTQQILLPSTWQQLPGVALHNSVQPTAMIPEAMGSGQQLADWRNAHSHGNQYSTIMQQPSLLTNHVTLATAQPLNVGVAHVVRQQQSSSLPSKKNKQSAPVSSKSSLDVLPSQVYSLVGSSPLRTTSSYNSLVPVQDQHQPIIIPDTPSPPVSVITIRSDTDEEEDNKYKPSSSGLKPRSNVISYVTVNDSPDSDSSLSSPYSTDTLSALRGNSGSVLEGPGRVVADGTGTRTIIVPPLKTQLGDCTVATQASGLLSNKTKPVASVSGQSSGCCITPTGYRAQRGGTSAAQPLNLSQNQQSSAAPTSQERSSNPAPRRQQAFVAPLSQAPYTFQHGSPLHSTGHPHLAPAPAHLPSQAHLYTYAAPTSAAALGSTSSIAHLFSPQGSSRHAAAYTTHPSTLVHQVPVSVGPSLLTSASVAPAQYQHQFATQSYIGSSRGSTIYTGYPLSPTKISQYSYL
KIT(V559D,T670I), sequence (P10721 26-976 V559D/T670I): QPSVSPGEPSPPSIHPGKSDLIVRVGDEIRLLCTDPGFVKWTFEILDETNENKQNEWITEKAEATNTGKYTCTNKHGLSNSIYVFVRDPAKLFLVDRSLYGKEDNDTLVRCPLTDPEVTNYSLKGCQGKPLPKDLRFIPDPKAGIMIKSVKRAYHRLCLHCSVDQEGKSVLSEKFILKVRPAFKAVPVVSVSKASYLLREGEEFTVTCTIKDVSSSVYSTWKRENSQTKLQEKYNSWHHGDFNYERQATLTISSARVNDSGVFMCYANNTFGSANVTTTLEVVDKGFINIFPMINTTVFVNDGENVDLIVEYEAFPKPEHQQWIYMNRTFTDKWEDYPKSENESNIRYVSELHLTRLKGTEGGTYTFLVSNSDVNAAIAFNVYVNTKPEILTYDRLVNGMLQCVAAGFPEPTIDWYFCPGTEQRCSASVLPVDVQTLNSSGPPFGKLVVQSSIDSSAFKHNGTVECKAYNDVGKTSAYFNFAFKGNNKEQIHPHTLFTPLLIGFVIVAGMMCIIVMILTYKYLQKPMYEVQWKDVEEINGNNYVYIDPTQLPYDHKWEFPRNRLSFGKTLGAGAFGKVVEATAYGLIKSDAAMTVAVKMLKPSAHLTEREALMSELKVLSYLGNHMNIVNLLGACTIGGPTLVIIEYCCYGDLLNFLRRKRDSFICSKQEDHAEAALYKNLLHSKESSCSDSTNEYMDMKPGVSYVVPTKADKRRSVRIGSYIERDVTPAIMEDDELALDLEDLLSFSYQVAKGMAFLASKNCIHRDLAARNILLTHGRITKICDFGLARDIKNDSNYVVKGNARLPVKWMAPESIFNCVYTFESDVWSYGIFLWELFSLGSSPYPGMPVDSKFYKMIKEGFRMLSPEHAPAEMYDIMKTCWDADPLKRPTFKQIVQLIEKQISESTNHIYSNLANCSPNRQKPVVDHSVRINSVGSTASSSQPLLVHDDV
CAMK2B, sequence (Q13554 whole entry): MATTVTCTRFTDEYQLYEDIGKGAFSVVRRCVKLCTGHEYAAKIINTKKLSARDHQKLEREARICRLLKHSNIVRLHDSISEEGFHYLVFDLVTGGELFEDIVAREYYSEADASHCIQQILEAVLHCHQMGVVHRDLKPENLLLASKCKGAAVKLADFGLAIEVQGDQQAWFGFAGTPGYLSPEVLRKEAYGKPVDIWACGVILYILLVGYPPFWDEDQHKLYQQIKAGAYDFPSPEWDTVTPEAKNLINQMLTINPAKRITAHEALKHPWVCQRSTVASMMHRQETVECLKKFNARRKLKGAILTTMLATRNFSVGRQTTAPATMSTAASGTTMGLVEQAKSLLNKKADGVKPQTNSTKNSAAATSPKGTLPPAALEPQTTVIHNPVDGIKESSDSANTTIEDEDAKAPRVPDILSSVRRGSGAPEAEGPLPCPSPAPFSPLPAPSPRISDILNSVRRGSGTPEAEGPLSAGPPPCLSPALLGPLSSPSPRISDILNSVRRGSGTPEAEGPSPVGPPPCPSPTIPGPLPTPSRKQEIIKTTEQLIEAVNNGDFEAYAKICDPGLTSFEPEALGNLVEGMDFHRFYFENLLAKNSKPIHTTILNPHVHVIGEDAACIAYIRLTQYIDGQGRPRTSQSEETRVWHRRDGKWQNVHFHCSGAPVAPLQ
EGFR(S752-I759del), sequence (P00533 other isoform, or with tags, fused parts or gaps del S752-I759): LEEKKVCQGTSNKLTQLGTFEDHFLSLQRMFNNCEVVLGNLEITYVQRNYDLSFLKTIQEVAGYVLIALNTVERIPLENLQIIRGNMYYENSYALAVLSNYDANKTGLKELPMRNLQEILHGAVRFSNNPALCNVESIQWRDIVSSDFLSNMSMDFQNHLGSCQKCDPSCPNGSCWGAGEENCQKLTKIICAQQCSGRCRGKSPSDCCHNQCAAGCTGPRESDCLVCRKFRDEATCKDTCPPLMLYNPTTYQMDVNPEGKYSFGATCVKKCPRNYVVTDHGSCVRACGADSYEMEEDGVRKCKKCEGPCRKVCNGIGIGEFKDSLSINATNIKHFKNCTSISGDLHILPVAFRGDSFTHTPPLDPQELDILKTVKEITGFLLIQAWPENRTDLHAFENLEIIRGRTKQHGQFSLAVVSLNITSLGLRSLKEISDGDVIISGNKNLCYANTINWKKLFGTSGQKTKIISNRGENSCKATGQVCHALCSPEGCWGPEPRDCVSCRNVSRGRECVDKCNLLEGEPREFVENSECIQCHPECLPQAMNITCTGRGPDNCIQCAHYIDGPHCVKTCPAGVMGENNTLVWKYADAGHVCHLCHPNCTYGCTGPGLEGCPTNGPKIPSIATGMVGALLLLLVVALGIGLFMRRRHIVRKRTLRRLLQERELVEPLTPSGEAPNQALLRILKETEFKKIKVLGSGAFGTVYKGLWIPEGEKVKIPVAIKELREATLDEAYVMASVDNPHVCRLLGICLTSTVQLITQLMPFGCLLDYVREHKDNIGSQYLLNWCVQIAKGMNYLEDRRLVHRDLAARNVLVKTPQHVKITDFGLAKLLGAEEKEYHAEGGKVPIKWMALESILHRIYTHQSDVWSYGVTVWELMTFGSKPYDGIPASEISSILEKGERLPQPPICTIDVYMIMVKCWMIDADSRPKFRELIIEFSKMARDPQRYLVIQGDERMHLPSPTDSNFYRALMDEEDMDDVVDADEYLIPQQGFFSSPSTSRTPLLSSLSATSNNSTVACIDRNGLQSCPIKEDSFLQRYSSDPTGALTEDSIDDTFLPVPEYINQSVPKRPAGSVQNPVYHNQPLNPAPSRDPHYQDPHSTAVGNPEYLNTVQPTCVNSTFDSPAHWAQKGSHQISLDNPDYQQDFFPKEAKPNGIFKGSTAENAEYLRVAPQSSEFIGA
KIT(D816V), sequence (P10721 26-976 D816V): as the sequence (P10721 26-976 V559D/T670I) above, with D534V, I645T, D791V counted along it
PLK3, sequence (Q9H4B4 whole entry): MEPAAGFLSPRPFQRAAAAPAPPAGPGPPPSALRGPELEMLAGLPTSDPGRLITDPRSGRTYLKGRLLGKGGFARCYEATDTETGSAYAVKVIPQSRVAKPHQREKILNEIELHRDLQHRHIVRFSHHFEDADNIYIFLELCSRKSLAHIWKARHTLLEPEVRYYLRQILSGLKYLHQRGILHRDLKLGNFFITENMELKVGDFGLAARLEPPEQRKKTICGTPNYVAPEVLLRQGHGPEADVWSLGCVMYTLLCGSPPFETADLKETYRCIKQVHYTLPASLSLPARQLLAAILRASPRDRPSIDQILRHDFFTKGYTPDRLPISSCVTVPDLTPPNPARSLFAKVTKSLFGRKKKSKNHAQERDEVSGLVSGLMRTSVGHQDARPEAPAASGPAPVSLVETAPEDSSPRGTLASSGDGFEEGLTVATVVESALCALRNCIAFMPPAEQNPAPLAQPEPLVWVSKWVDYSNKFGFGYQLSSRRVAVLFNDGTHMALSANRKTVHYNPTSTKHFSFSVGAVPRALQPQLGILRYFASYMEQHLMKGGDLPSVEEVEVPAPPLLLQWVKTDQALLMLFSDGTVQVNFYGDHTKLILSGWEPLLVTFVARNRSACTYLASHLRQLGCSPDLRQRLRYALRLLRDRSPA
RSK4 (Kin.Dom.2-C-terminal), sequence (Q9UK32 426-683): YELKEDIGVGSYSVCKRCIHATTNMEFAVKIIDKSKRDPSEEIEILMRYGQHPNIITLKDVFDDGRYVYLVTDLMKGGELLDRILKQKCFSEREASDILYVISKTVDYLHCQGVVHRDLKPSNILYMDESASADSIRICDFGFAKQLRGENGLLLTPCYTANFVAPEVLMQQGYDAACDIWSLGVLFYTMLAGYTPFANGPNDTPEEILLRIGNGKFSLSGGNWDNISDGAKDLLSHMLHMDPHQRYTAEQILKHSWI

**Q.** For `CCN1CCN(Cc2cc(NC(=O)c3ccc(C)c(-c4ccc5nc(NC(=O)C6CC6)cn5c4)c3)cc(C(F)(F)F)c2)CC1` [Compound I-6, 3-(2-(cyclopropanecarboxamido)imidazo[1,2-a]pyridin-6-yl)-N-(3-((4-ethylpiperazin-1-yl)methyl)-5-(trifluoromethyl)phenyl)-4-methylbenzamide], which remaining binding at 1 µM (PYK2) is on record?
**A.** 4.1%

**Q.** What about the remaining binding at 1 µM (EGFR(E746-A750del)) of the same molecule?
**A.** 25%

**Q.** What about the remaining binding at 1 µM (PIK3CA(C420R)) of the same molecule?
**A.** 95%

**Q.** And the remaining binding at 1 µM (KIT(D816V))?
**A.** 22%

**Q.** And the remaining binding at 1 µM [1]?
**A.** 77%

**Q.** What about the remaining binding at 1 µM (CAMKK1) of the same molecule?
**A.** 53%

**Q.** What about the remaining binding at 1 µM (ALK(C1156Y)) of the same molecule?
**A.** 29%

**Q.** And the remaining binding at 1 µM (QSK)?
**A.** 83%

**Q.** What about the remaining binding at 1 µM (JNK2) of the same molecule?
**A.** 27%

**Q.** And the remaining binding at 1 µM (DMPK)?
**A.** 100%

**Q.** What about the remaining binding at 1 µM (EGFR(G719C)) of the same molecule?
**A.** 46%

**Q.** What about the remaining binding at 1 µM (HIPK1) of the same molecule?
**A.** 96%

**Q.** What about the remaining binding at 1 µM (KIT(V559D,T670I)) of the same molecule?
**A.** 5.5%

**Q.** What about the remaining binding at 1 µM (CSNK1G1) of the same molecule?
**A.** 96%

**Q.** And the remaining binding at 1 µM (TSSK3)?
**A.** 91%

**Q.** What about the remaining binding at 1 µM [2] of the same molecule?
**A.** 89%

**Q.** And the remaining binding at 1 µM (ABL1-nonphosphorylated)?
**A.** 0.1%

**Q.** And the remaining binding at 1 µM (LRRK2)?
**A.** 87%

**Q.** What about the remaining binding at 1 µM (FLT3 (R834Q)) of the same molecule?
**A.** 2.1%

**Q.** And the remaining binding at 1 µM (GRK2)?
**A.** 63%

**Q.** And the remaining binding at 1 µM (EPHA4)?
**A.** 0%

**Q.** And the remaining binding at 1 µM (EGFR(S752-I759del))?
**A.** 65%

**Q.** What about the remaining binding at 1 µM (MET(M1250T)) of the same molecule?
**A.** 42%

**Q.** What about the remaining binding at 1 µM (EPHB 1) of the same molecule?
**A.** 0.25%

**Q.** What about the remaining binding at 1 µM (CLK1) of the same molecule?
**A.** 20%

**Q.** And the remaining binding at 1 µM (ZAP70)?
**A.** 30%

**Q.** What about the remaining binding at 1 µM (PLK3) of the same molecule?
**A.** 100%

**Q.** What about the remaining binding at 1 µM (RAF1) of the same molecule?
**A.** 18%

**Q.** And the remaining binding at 1 µM (PKAC-alpha)?
**A.** 97%

**Q.** And the remaining binding at 1 µM (MST1)?
**A.** 60%

**Q.** What about the remaining binding at 1 µM (DRAK1) of the same molecule?
**A.** 94%

**Q.** And the remaining binding at 1 µM (SRMS)?
**A.** 79%

**Q.** What about the remaining binding at 1 µM [3] of the same molecule?
**A.** 72%

**Q.** And the remaining binding at 1 µM (CAMK2B)?
**A.** 100%

**Q.** What about the remaining binding at 1 µM [4] of the same molecule?
**A.** 98%

**Q.** And the remaining binding at 1 µM (MEK2)?
**A.** 95%

**Q.** What about the remaining binding at 1 µM (MET(Y1235D)) of the same molecule?
**A.** 8.9%

**Q.** Which results are given for `CCN1CCN(Cc2cc(NC(=O)c3ccc(C)c(-c4ccc5nc(NC(=O)C6CC6)cn5n4)c3)cc(C(F)(F)F)c2)CC1` [Compound I-2, 3-(2-(cyclopropanecarboxamido)imidazo[1,2-b]pyridazin-6-yl)-N-(3-((4-ethylpiperazin-1-yl)methyl)-5-(trifluoromethyl)phenyl)-4-methylbenzamide]?
**A.** remaining binding at 1 µM (PYK2): 3.2%; remaining binding at 1 µM (EGFR(E746-A750del)): 29%; remaining binding at 1 µM (PIK3CA(C420R)): 85%; remaining binding at 1 µM (KIT(D816V)): 32%; remaining binding at 1 µM [1]: 94%; remaining binding at 1 µM (CAMKK1): 12%; remaining binding at 1 µM (ALK(C1156Y)): 30%; remaining binding at 1 µM (QSK): 92%; remaining binding at 1 µM (JNK2): 46%; remaining binding at 1 µM (DMPK): 87%; remaining binding at 1 µM (EGFR(G719C)): 53%; remaining binding at 1 µM (HIPK1): 62%; remaining binding at 1 µM (KIT(V559D,T670I)): 6.6%; remaining binding at 1 µM (CSNK1G1): 100%; remaining binding at 1 µM (TSSK3): 100%; remaining binding at 1 µM [2]: 98%; remaining binding at 1 µM (ABL1-nonphosphorylated): 0%; remaining binding at 1 µM (LRRK2): 100%; remaining binding at 1 µM (FLT3 (R834Q)): 1.5%; remaining binding at 1 µM (GRK2): 94%; remaining binding at 1 µM (EPHA4): 0%; remaining binding at 1 µM (EGFR(S752-I759del)): 80%; remaining binding at 1 µM (MET(M1250T)): 9.9%; remaining binding at 1 µM (EPHB 1): 0.65%; remaining binding at 1 µM (CLK1): 7.9%; remaining binding at 1 µM (ZAP70): 66%; remaining binding at 1 µM (PLK3): 100%; remaining binding at 1 µM (RAF1): 13%; remaining binding at 1 µM (PKAC-alpha): 75%; remaining binding at 1 µM (MST1): 30%; remaining binding at 1 µM (DRAK1): 100%; remaining binding at 1 µM (SRMS): 86%; remaining binding at 1 µM [3]: 100%; remaining binding at 1 µM (CAMK2B): 100%; remaining binding at 1 µM [4]: 100%; remaining binding at 1 µM (MEK2): 95%; remaining binding at 1 µM (MET(Y1235D)): 8.7%
